Test results: patent publication US5013759A, “Compounds and compositions having anti-inflammatory and analgesic activity” (The Procter & Gamble Company, priority 1990, dated 1991)

Assays:
[1] = system: Croton Oil Inflamed Mouse Ear; experiment: Croton Oil Inflamed Mouse Ear Test (Topical treatment); type: in vivo, Adult male Cox ICR mice; conditions: 1% solution in ethanol, two doses, 4 h after croton oil, All values significant p 0.05
Protocol: Substituted phenylacetic acid amide compounds were tested for anti-inflammatory activity using the Croton Oil Inflamed Mouse Ear Test (Topical treatment).
Adult male Cox ICR mice, 25-35 g, were treated at about 3:00 PM on the left ear with 25 l of a 1% solution of the test compound in ethanol. They were placed in individual stainless steel cages where food and water was available ad libitum. The following morning around 8:00 AM the mice were dosed a second time on the same ear. One hour after the second dose, 25 l of 2% croton oil in acetone was applied to the left ear of the control and test groups.
Four hours after the croton oil treatment, the mice were sacrificed by cervical dislocation and both ears removed. A 5 mm punch biopsy was taken from each ear and weighed to the nearest 0.1 mg on a Cahn electrobalance.
The results were expressed as percent inhibition of the swelling response compared to the control group according to the formula:
(C-Ta..n)/C×100=Percent Inhibition
where C is the average difference between the left and right ear weights of the control group, and
Ta..n is the difference between left and right ear weights of animal (a..n) in a treated group.
Statistical tests for significance between groups were made using a one way analysis of variance of the ear weight differences.

[2] = Oral administration of soft gelatin capsules to a human (Example IV); type: in vivo; conditions: two capsules each containing 225 mg of the composition, 60 kg human
Protocol: (§1) A composition for oral administration is prepared by combining the following ingredients:
N-oleyl-4-hydroxy-3-methoxyphenylacetamide, 1.10 kg

[3] = Oral administration of syrup to an adult human (Example V); type: in vivo; conditions: one teaspoon of syrup, 70 kg adult human
Protocol: as §1
N-oleyl-4-hydroxy-3-methoxyphenylacetamide, 250 g
Propylene glycol, 1800 ml
Artificial Cherry flavor, 10 ml
The above ingredients are combined to produce a syrup and are packaged under sterile conditions in 6 oz. bottles.

[4] = system: Carrageenan Rat Paw Edema; experiment: Carrageenan Rat Paw Edema Test (Oil Vehicle); type: in vivo, Male Sprague Dawley rats; conditions: 4 h after carrageenan, All values significant p 0.05
Protocol: Substituted phenylacetic acid amide compounds were tested for anti-inflammatory activity using the Carrageenan Rat Paw Edema Test (Oil Vehicle).
Male Sprague Dawley rats (Charles River Laboratories) were weighed and food fasted overnight. The animals were divided into four to six groups of six animals each according to body weights, average about 145 g, so that each group had about the same average weight (within 10 g).
The following morning five ml of water was dosed orally via stomach tube to each animal to facilitate paw swelling. The animals were dosed with the test compound and then placed in individual cages. The drug was dissolved in ethyl oleate: benzyl alcohol, 98:2, and delivered via stomach tube in 1 ml volume.
Paw volumes (0 time) were determined on both hind paws with a mercury displacement device equipped with a transducer and digitizer. […] Four hours after the carrageenan injection, the paw volumes are again determined.
The results are expressed as percent inhibition of the mean paw volume of the test group relative to the control group according to the formula: […]
Ta..n is the difference in paw swelling in the treated animals (a..n). Statistical differences are determined by one way analysis of variance.

[5] = Topical application to forearm of a human (Example VI); type: in vivo; conditions: 0.4 ml to 80 cm^2 of forearm, 60 kg human
Protocol: A composition for topical administration is prepared by combining the following ingredients:
N-oleyl-4-hydroxy-3-methoxyphenylacetamide, 4 g
The phenylacetamide is melted with slight warming and combined with the other ingredients.

Compound: C=CCCCCCCCCNC(=O)Cc1ccc(O)c(OC)c1 [N-9-decenyl-4-hydroxy-3-methoxyphenylacetamide]
- Percent Inhibition (of the swelling response compared to control) [1]: 98.9 +/- 11.9%

Compound: CCCCCCCC(C)NC(=O)Cc1ccc(O)c(OC)c1 (stereo not drawn) [N-(2-nonanyl)-4-hydroxy-3-methoxyphenylacetamide]
- Percent Inhibition (of the swelling response compared to control) [1]: 55.6 +/- 26.5%

Compound: CCCCCCC(C)NC(=O)Cc1ccc(O)c(OC)c1 (stereo not drawn) [N-(2-octanyl-)-4-hydroxy-3-methoxyphenylacetamide]
- Percent Inhibition (of the swelling response compared to control) [1]: 48.1 +/- 15.8%

Compound: C=C(CCCCCCCCC)CCCCCCCCNC(=O)Cc1ccc(O)c(OC)c1 [N-(9-methylene-1-octadecanyl-)-4-hydroxy-3-methoxyphenyl acetamide]
- Analgesia [2]: increased analgesic effect
- Reduction of inflammation [2]: substantially similar reduction of inflammation

Compound: COc1cc(CC(=O)NC2CCCCCCC2)ccc1O [N-cyclooctyl-4-hydroxy-3-methoxyphenylacetamide]
- Analgesia [3]: weaker analgesic effect
- Reduction of inflammation [3]: substantially similar reduction of inflammation

Compound: CCCCCCCCCCNC(=O)Cc1ccc(O)c(OC)c1 [N-decyl-4-hydroxy-3-methoxyphenylacetamide]
- Percent Inhibition (of the swelling response compared to control) [1]: 58.1 +/- 29.4%

Compound: CCCCCCCCCCCCNC(=O)Cc1ccc(O)c(OC)c1 [N-dodecyl-4-hydroxy-3-methoxyphenylacetamide]
- Percent Inhibition (of the swelling response compared to control) [1]: 55.3 +/- 20.7%

Compound: CCCCCCCNC(=O)Cc1ccc(O)c(OC)c1 [N-heptyl-4-hydroxy-3-methoxyphenylacetamide]
- Percent Inhibition (of the swelling response compared to control) [1]: 69.4 +/- 33.9%

Compound: CCCCCCCCCNC(=O)Cc1ccc(O)c(OC)c1 [N-nonyl-4-hydroxy-3-methoxyphenylacetamide]
- Percent Inhibition (of the swelling response compared to control) [1]: 80.7 +/- 23.0%

Compound: CCCCCCCCNC(=O)C(C)c1ccc(O)c(OC)c1 (stereo not drawn) [N-octyl-4-hydroxy-3-methoxyphenyl-2-methyl-acetamide]
- Percent Inhibition (of the swelling response compared to control) [1]: 88.9 +/- 24.1%

Compound: CCCCCCCCNC(=O)Cc1ccc(O)c(OC)c1 [N-octyl-4-hydroxy-3-methoxyphenylacetamide]
- Percent Inhibition (of the swelling response compared to control) [1]: 89.1 +/- 15.7%

Compound: CCCCCCCC/C=C\CCCCCCCCNC(=O)Cc1ccc(O)c(OC)c1 [N-oleyl-4-hydroxy-3-methoxyphenylacetamide]
- Percent Inhibition (of the swelling response compared to control) [1]: 83.5 +/- 11.9%
- Percent Inhibition (of mean paw volume relative to control) ([4]; 200 mg/kg oral in ethyl oleate: benzyl alcohol 98:2): 89.3 +/- 10.8%
- Percent Inhibition (of mean paw volume relative to control) ([4]; 400 mg/kg oral in ethyl oleate: benzyl alcohol 98:2): 95.6 +/- 11.2%

Compound: CCCCCCCCCCCCCCCCCCNC(=O)Cc1ccc(O)c(OC)c1 [N-stearyl-4-hydroxy-3-methoxyphenylacetamide]
- Analgesia [5]: weaker analgesic effect
- Reduction of inflammation [5]: substantially similar reduction of inflammation
